These results are taken from BindingDB's records for doi:10.1111/cbdd.12141 (Konkuk University, 2013).

SMILES strings stand for the structures.

Chain of Xanthine dehydrogenase/oxidase (P80457 whole entry): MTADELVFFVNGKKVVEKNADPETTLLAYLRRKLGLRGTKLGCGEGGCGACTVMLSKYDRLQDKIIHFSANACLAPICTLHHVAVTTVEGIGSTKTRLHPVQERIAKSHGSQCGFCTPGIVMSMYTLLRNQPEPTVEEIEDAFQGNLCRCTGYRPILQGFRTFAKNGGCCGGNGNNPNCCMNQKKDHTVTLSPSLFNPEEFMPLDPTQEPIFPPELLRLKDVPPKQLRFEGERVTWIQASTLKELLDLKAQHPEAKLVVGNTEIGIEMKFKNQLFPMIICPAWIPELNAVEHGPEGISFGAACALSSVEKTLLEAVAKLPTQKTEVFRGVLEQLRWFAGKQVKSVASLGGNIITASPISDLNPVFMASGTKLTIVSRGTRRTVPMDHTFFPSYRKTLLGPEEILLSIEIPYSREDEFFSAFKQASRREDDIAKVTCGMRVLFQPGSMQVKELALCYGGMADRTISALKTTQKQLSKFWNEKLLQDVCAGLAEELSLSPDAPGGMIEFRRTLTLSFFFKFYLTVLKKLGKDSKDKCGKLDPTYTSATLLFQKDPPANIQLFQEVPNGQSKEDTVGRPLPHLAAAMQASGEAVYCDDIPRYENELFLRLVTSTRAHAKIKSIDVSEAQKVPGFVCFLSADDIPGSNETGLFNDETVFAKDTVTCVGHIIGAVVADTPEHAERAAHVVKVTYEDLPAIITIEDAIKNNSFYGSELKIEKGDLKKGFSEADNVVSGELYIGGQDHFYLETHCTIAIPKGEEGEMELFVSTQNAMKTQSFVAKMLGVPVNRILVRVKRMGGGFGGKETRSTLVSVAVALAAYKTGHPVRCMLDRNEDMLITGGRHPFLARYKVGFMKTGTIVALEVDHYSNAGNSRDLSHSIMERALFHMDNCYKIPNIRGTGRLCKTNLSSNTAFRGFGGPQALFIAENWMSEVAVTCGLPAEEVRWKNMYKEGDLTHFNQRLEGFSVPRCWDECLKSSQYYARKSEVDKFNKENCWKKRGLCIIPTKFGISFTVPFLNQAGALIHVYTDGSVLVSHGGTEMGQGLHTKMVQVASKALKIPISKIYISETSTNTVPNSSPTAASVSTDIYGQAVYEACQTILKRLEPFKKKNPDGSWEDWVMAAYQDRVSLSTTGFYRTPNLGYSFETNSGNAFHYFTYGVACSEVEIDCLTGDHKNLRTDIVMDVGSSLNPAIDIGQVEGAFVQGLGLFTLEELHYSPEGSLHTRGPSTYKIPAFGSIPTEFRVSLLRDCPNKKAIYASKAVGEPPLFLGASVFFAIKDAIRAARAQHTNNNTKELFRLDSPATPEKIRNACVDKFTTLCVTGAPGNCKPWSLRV

In the assay the target is Xanthine dehydrogenase/oxidase (Bos taurus, UniProt P80457). The experiment in a line: XO inhibitory activity. The conditions noted are these: pH 7.6; 25 °C. The method, then:
The enzyme was pre-incubated for 5 min, with test compound, dissolved in DMSO (1% v/v). The reaction was initiated by the addition of xanthine.
The IC50 is the concentration at which inhibition is half-maximal. High values mean weaker potency, low ones greater potency. In turn, `Cc1cccc(Cn2c(-c3cccc(C)c3)nc3ccccc32)c1` [2‐(3‐methylphenyl)‐1‐[(3‐methylphenyl)methyl]‐1,3‐ benzodiazole (B9)] yielded an IC50 of 4.3 µM.
The same measure for `Oc1ccc(Cn2c(-c3ccc(O)cc3)nc3ccccc32)cc1` [4‐{1‐[(4‐hydroxyphenyl)methyl]‐1,3‐benzodiazol‐2‐ yl}phenol (B6)]: 4.5 µM; for `Cc1ccccc1Cn1c(-c2ccccc2C)nc2ccccc21` [2‐(2‐methylphenyl)‐1‐[(2‐methylphenyl)methyl]‐1,3‐ benzodiazole (B4)]: 5.6 µM; for `Oc1ccc2ccccc2c1-c1nc2ccccc2n1Cc1ccc2ccccc2c1O` [1‐{1‐[(1‐hydroxynaphthalen‐2‐yl)methyl]‐1,3‐ benzodiazol‐2‐yl}naphthalen‐2‐ol (B11)]: 5.3 µM.
In the case of `Cc1ccc(Cn2c(-c3ccc(C)cc3)nc3ccccc32)cc1` [2‐(4‐methylphenyl)‐1‐[(4‐methylphenyl)methyl]‐1,3‐ benzodiazole (B5)] it was 7.5 µM.
In the case of `COc1cccc(Cn2c(-c3cccc(OC)c3)nc3ccccc32)c1` [2‐(3‐methoxyphenyl)‐1‐[(3‐methoxyphenyl)methyl]‐ 1,3‐benzodiazole (B13)] it was 5.1 µM; in that of `Oc1ccccc1Cn1c(-c2ccccc2O)nc2ccccc21`, 8.7 µM.
`Oc1cccc(Cn2c(-c3cccc(O)c3)nc3ccccc32)c1` [3‐{1‐[(3‐hydroxyphenyl)methyl]‐1,3‐benzodiazol‐2‐ yl}phenol (B7)] had an IC50 of 5.8 µM.
The same measure for `c1cncc(Cn2c(-c3cccnc3)nc3ccccc32)c1` [2‐(pyridin‐3‐yl)‐1‐(pyridin‐3‐ylmethyl)‐1,3‐ benzodiazole (B12)]: 7.1 µM.
The same measure for `COc1ccc(Cn2c(-c3ccc(OC)cc3)nc3ccccc32)cc1` [2‐(4‐methoxyphenyl)‐1‐[(4‐methoxyphenyl)methyl]‐ 1,3‐benzodiazole (B14)]: 8.5 µM.
Regarding `Clc1ccccc1Cn1c(-c2ccccc2Cl)nc2ccccc21` [2‐(2‐chlorophenyl)‐1‐[(2‐chlorophenyl)methyl]‐1,3‐ benzodiazole (B3)], inhibition was half-maximal at 4.4 µM (IC50).
The molecule `c1ccc(Cn2c(-c3ccccc3)nc3ccccc32)cc1` [1‐benzyl‐2‐phenyl‐1,3‐benzodiazole (B10)] gave an IC50 of 9.7 µM.
In the case of `Clc1cccc(Cn2c(-c3cccc(Cl)c3)nc3ccccc32)c1` [2‐(3‐chlorophenyl)‐1‐[(3‐chlorophenyl)methyl]‐1,3‐ benzodiazole (B8)] it was 8.2 µM.
For `Clc1ccc(Cn2c(-c3ccc(Cl)cc3)nc3ccccc32)cc1` [2‐(4‐chlorophenyl)‐1‐[(4‐chlorophenyl)methyl]‐1,3‐ benzodiazole (B2)], the midpoint of inhibition, the IC50, lay at 6.3 µM.
